Test results taken from a compilation of properties of binary mixtures (doi:10.1039/c5cp02799c).

Experiment: xn = mol fraction of the nth substance listed
Details: 101.3 kPa

CCCCC[P+](CC)(CC)CC.O=S(=O)([N-]S(=O)(=O)C(F)(F)F)C(F)(F)F + O=S(=O)([N-]S(=O)(=O)C(F)(F)F)C(F)(F)F.[Li+]
Details | electrical conductivity [S/m] | viscosity [mPa·s]
298.2 K, x2 = 0.25 | 0.062 | –
298.2 K, x2 = 0.39 | 0.016 | 1300
298.3 K, x2 = 0.25 | – | 310
300.2 K, x2 = 0.25 | – | 270
300.2 K, x2 = 0.39 | 0.019 | –
300.3 K, x2 = 0.25 | 0.075 | –
306.2 K, x2 = 0.25 | 0.1 | –
306.2 K, x2 = 0.39 | 0.028 | 670
306.3 K, x2 = 0.25 | – | 180
312.2 K, x2 = 0.39 | 0.041 | –
312.3 K, x2 = 0.25 | 0.14 | 130
312.3 K, x2 = 0.39 | – | 440
318.2 K, x2 = 0.39 | 0.058 | 290
318.3 K, x2 = 0.25 | 0.18 | 95
324.3 K, x2 = 0.25 | 0.23 | 71
330.3 K, x2 = 0.25 | 0.29 | –
330.4 K, x2 = 0.25 | – | 54
336.2 K, x2 = 0.39 | 0.15 | 110
341.2 K, x2 = 0.39 | – | 85
348.2 K, x2 = 0.39 | 0.24 | 63
355.2 K, x2 = 0.39 | – | 47
355.3 K, x2 = 0.25 | – | 21
361.3 K, x2 = 0.25 | 0.73 | –
361.4 K, x2 = 0.25 | – | 18
374.2 K, x2 = 0.25 | – | 12
374.2 K, x2 = 0.39 | – | 24

CC[P+](CC)(CC)CCOC.O=S(=O)([N-]S(=O)(=O)C(F)(F)F)C(F)(F)F + O=S(=O)([N-]S(=O)(=O)C(F)(F)F)C(F)(F)F.[Li+]
Details | electrical conductivity [S/m] | viscosity [mPa·s]
298.2 K, x2 = 0.39 | 0.51 | 620
300.1 K, x2 = 0.39 | – | 540
300.2 K, x2 = 0.25 | – | 150
300.2 K, x2 = 0.39 | 0.55 | –
300.3 K, x2 = 0.25 | 1.1 | –
306.1 K, x2 = 0.39 | – | 360
306.2 K, x2 = 0.25 | 1.2 | –
306.2 K, x2 = 0.39 | 0.68 | –
306.3 K, x2 = 0.25 | – | 110
312.2 K, x2 = 0.25 | – | 81
312.3 K, x2 = 0.25 | 1.3 | –
312.3 K, x2 = 0.39 | – | 250
318.1 K, x2 = 0.39 | – | 180
318.2 K, x2 = 0.39 | 0.91 | –
318.3 K, x2 = 0.25 | 1.4 | 61
324.2 K, x2 = 0.25 | – | 47
324.2 K, x2 = 0.39 | 1 | 130
324.3 K, x2 = 0.25 | 1.4 | –
330.2 K, x2 = 0.39 | 1.1 | 95
330.3 K, x2 = 0.25 | 1.5 | 37
336.2 K, x2 = 0.39 | 1.2 | 72
336.3 K, x2 = 0.25 | 1.6 | 30
341.1 K, x2 = 0.39 | – | 58
341.3 K, x2 = 0.25 | – | 25
348.2 K, x2 = 0.25 | 1.7 | 20
348.2 K, x2 = 0.39 | 1.3 | 45
355.2 K, x2 = 0.39 | – | 34
361.2 K, x2 = 0.39 | – | 28
361.3 K, x2 = 0.25 | 1.8 | 14
374.2 K, x2 = 0.39 | – | 19
374.3 K, x2 = 0.25 | – | 10
